# Reference: ChEMBL document CHEMBL1130472, “Potent selective thienoxazinone inhibitors of herpes proteases” (Bioorg Med Chem Lett, 1997)
# Assays:
# [1] = molecular target: T1, Capsid scaffolding protein (Herpes simplex virus (type 1 / strain 17), UniProt P10210); experiment: Inhibitory concentration for peptidolytic activity against herpes simplex type-1 (HSV-1) protease at 10 uM.; design: species or system Human alphaherpesvirus 1
# T1 sequence (P10210 whole entry): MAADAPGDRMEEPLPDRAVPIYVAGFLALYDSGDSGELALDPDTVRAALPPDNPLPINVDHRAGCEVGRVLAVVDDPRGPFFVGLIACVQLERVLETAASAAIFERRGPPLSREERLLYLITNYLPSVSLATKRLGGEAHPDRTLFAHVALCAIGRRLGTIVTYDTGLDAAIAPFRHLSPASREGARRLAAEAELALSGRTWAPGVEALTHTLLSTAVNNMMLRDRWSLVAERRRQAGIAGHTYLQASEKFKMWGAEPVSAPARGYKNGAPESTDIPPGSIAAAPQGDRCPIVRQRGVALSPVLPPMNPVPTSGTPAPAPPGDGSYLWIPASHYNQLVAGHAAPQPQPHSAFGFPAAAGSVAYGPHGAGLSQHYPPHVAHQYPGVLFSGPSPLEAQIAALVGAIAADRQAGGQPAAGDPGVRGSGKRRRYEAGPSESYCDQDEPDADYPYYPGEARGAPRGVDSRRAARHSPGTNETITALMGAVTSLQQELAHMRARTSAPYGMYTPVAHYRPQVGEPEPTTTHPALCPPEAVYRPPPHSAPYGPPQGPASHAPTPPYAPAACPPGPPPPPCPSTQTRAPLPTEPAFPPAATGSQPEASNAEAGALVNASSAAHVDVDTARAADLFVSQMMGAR
# Cytomegalovirus [2] = experiment: Inhibitory concentration for peptidolytic activity against cytomegalovirus (CMV) protease at 10 uM.; type: functional, organism-based; conditions: Human betaherpesvirus 5
# Human alphaherpesvirus 2 [3] = experiment: Inhibitory concentration for peptidolytic activity against herpes simplex type-2(HSV-2) protease at 10 uM.; type: functional, organism-based
# [4] = Tested for peptidolytic activity against subtilisin at a concentration of 1 mM; no inhibition
# [5] = Inhibitory concentration for peptidolytic activity against elastase
# [6] = Selectivity ratio of inhibitory concentration against elastase and HSV-1
# [7] = Half life was determined; type: ADME; conditions: rat
# Human alphaherpesvirus 2 [8] = experiment: Percent inhibition for peptidolytic activity against herpes simplex type-2(HSV-2) protease at 10 uM.; type: functional
# Cytomegalovirus [9] = experiment: Percent inhibition for peptidolytic activity against cytomegalovirus (CMV) protease at 10 uM.; type: functional; conditions: Human betaherpesvirus 5
smiles,measurement,setting,value
O=C(N[C@@H](Cc1ccccc1)c1nc2ccsc2c(=O)o1)OCc1ccccc1,IC50,[1],> 300 µM
same,IC50,Cytomegalovirus [2],3.5 µM
O=C(NCc1nc2ccsc2c(=O)o1)OCc1ccccc1,IC50,[1],2.7 µM
same,IC50,Cytomegalovirus [2],45 µM
C[C@H](NC(=O)OCc1ccccc1)c1nc2cc(-c3ccccc3)sc2c(=O)o1,IC50,[1],3.3 µM
same,IC50,Cytomegalovirus [2],> 300 µM
C[C@H](NC(=O)OCc1ccccc1)c1nc2c(Cl)c(NC(=O)[C@@H](C)NC(=O)OCc3ccccc3)sc2c(=O)o1,IC50,Human alphaherpesvirus 2 [3],1.6 µM
same,IC50,Cytomegalovirus [2],1.3 µM
NC(=O)C[C@H](NC(=O)OCc1ccccc1)c1nc2ccsc2c(=O)o1,IC50,[1],10 µM
same,IC50,Cytomegalovirus [2],18 µM
C[C@H](NC(=O)Nc1ccccc1)c1nc2ccsc2c(=O)o1,IC50,Human alphaherpesvirus 2 [3],> 100 µM
same,IC50,Cytomegalovirus [2],> 100 µM
NC(=O)CC[C@H](NC(=O)OCc1ccccc1)c1nc2ccsc2c(=O)o1,IC50,[1],6.3 µM
C[C@H](Nc1ccc([N+](=O)[O-])cc1[N+](=O)[O-])c1nc2ccsc2c(=O)o1,IC50,Human alphaherpesvirus 2 [3],2.9 µM
same,IC50,Cytomegalovirus [2],3.3 µM
C[C@H](NC(=O)OCc1ccccc1)c1nc2ccsc2c(=O)o1,IC50,[1],0.48 µM
same,IC50,[4],Not Active
same,IC50,[5],120 µM
same,IC50,Human alphaherpesvirus 2 [3],0.42 µM
same,Ratio,[6],250
same,IC50,Cytomegalovirus [2],9.4 µM
same,half-life,[7],> 100 h
C[C@H](NC(=O)OCc1ccccc1)C(=O)Nc1csc2c(=O)oc([C@H](C)NC(=O)OCc3ccccc3)nc12,inhibition at 10 µM,Human alphaherpesvirus 2 [8],50%
same,inhibition at 10 µM,Cytomegalovirus [9],43%
O=C(N[C@@H](CO)c1nc2ccsc2c(=O)o1)OCc1ccccc1,IC50,[1],0.65 µM
same,IC50,Human alphaherpesvirus 2 [3],0.33 µM
same,IC50,Cytomegalovirus [2],20 µM
C[C@H](NC(=O)NCc1ccccc1)c1nc2ccsc2c(=O)o1,inhibition at 10 µM,Human alphaherpesvirus 2 [8],1%
same,inhibition at 10 µM,Cytomegalovirus [9],20%
C[C@H](NC(=O)OC(C)(C)C)c1nc2ccsc2c(=O)o1,inhibition at 10 µM,Human alphaherpesvirus 2 [8],32%
same,inhibition at 10 µM,Cytomegalovirus [9],15%
Cc1cccc2nc([C@H](C)NC(=O)OCc3ccccc3)oc(=O)c12,IC50,[5],0.22 µM
same,Ratio,[6],0.002
same,half-life,[7],33 h
Cc1csc2c(=O)oc([C@H](C)NC(=O)OCc3ccccc3)nc12,IC50,[1],3.1 µM
same,IC50,Cytomegalovirus [2],12 µM
CC(C)[C@H](NC(=O)OCc1ccccc1)c1nc2ccsc2c(=O)o1,IC50,[1],31 µM
same,IC50,Cytomegalovirus [2],26 µM
Cc1ccc(S(=O)(=O)N[C@@H](C)c2nc3ccsc3c(=O)o2)cc1,inhibition at 10 µM,Human alphaherpesvirus 2 [8],13%
same,inhibition at 10 µM,Cytomegalovirus [9],30%
C[C@H](NC(=O)OCc1ccccc1)c1nc2ccccc2c(=O)o1,IC50,[5],45 µM
same,Ratio,[6],1.1
same,half-life,[7],14 h
